Like-named read-outs stand apart in the source and are kept apart here.

Data set [1] is described as follows: Solubility in water, saturated suspension filtered and measured by HPLC. In kind it is physicochemical. The following applies: for solubility: thermodynamic from solid; for water solubility compared with the corresponding neutral or monosalt compounds: result in words. On the procedure:
A compound was weighed and water was added to the compound such that the resulting concentration of the compound was about 100 mg/mL. The mixture was then shaken well and sonicated (about 5-10 min at about 50° C.). If the added amounts of the compound were totally solubilized, more amounts of the compound were added to the solution and the mixture was shaken well and sonicated until a suspension was achieved. The suspension was then filtered through a 0.2 μm filter. The filtered solution was diluted with DMSO. Then the mixture was analyzed by HPLC to determine the concentration of the compound.
The HPLC system consisted of the HP 1100 Model (Agilent, Wilmington, Del.) equipped with a model 1100 quaternary pump, a model 1100 autosampler, a model 1100 Diode-Array Detector for UV detection at 280 nm. HPLC analysis was performed using a gradient mobile phase consisting of acetonitrile-water containing 0.1% formic acid. Mobile phases were degassed and filtered through a solvent filtration apparatus and pumped at a constant rate of 1.0 mL/min. Separation was made on an XTerra MS C18 analytical column, 4.6 mm i.d.×150 mm, (Waters Corp., Milford, Mass., USA) fitted with a pre-column filter (XTerra MS C18, 3.9 mm×20 mm). The column was maintained at 40° C.

A short description of data set [2]: Pharmacokinetics study in dog, bioavailability AUCpo/AUCiv. The format is in vivo. On the procedure:
Male beagle dogs were acclimated for at least one week prior to use, were fed laboratory chow and water ad libitum, and were housed in temperature and humidity controlled rooms. Compounds were prepared as a solution for intravenous injection or a capsule for oral administration. Three dogs were used for the study. Compounds were injected intravenously via cephalic vein or by oral gavage. The dose was adjusted based on the animal's body weight. Blood samples were collected at intervals of 5, 10 and 30 min and 1, 2, 4, 6, 8 and 24 hr (example) after administration of the compound and plasma samples were prepared after centrifugation (5000 rpm, 8 min) of whole blood samples. Compound in plasma was measured by a liquid chromatography with tandem mass spectrophotometer (LC/MS/MS) after 50 μl of these samples were extracted by protein precipitation with acetonitrile. The compound concentration was determined by the standard curve (concentration vs. peak area) made with the same extraction procedure of controlled plasma. The area under curve (AUC) was calculated using the modified trapezoidal method. The portion of AUC from the last measurable plasma concentration to infinity was estimated by C/k, where k was expressed by the least square regression of the log-linear concentration time points and C represents the last measurable plasma concentration. Bioavailability was calculated by AUCpo/AUCiv.
Compounds (1) and (3) and its internal standard were extracted from heparinized plasma by protein precipitation with acetonitrile. Chromatography was achieved on an XTerra column (Waters, particle size: 5 μm; 100 mm×3.0 mm i.d.) using a mixture of acetonitrile, water and formic acid. Analysis was performed on a Sciex API 365 tandem mass spectrometer with turbo ion spray interface. Negative ions were measured using the multiple-reaction-monitoring (MRM) mode with m/z 399.0→165.1. The run time was 9 min per sample, and Compounds (1) and (3) were quantitated by a peak area ratio using 1/×^2-weighted least-square linear regression plot.

The mark [3] stands for this setting: water, shaken and sonicated about 5-10 min at about 50° C., filtered 0.2 μm, HPLC.
The mark [4] stands for this setting: water, shaken and sonicated about 5-10 min at about 50° C., filtered 0.2 μm, HPLC, read-out: Solubility in water.

With `CN(NC(=O)CC(=O)NN(C)C(=S)c1ccccc1)C(=S)c1ccccc1` [Compound 1, Disodium; 2-(N′-methyl-N′-thiobenzoyl-hydrazinocarbonyl)-1-(methyl-thiobenzoyl-hydrazono)-ethanolate], the solubility in data set [1] (50 °C, water, read-out: water solubility) is more than 1000 mg/mL. In data set [1], the “water solubility compared with the corresponding neutral or monosalt compounds” value is “significantly greater water solubility”. Further, the Solubility in water in data set [1] (setting [3]) is more than 1000 mg/mL. For the same molecule, the bioavailability in data set [2] (male, beagle, plasma, oral, see Example 16 (dog), read-out: bioavailability) came to 80%.
As for `CN(/N=C(\[O-])CC(=O)NN(C)C(=S)c1ccccc1)C(=S)c1ccccc1.[Na+]` [Compound 3, Sodium; 2-(N′-methyl-N′-thiobenzoyl-hydrazinocarbonyl)-1-(methyl-thiobenzoyl-hydrazono)-ethanolate], the solubility in data set [1] (setting [4]) was 52.8 mg/mL. Moreover, the bioavailability in data set [2] (dog, plasma, male beagle dogs, capsule oral vs intravenous solution, AUCpo/AUCiv, read-out: Bioavailability) stood at 35%.
Regarding `CN(/N=C(\[O-])CC(=O)NN(C)C(=S)c1ccccc1)C(=S)c1ccccc1.[Li+]` [Compound 4, Lithium; 2-(N′-methyl-N′-thiobenzoyl-hydrazinocarbonyl)-1-(methyl-thiobenzoyl-hydrazono)-ethanolate], the solubility in data set [1] (setting [4]) was determined as 53.5 mg/mL.
`CN(/N=C(\[O-])C/C([O-])=N/N(C)C(=S)c1ccccc1)C(=S)c1ccccc1.[Li+].[Li+]` [Compound 5, Dilithium; 2-(N′-methyl-N′-thiobenzoyl-hydrazinocarbonyl)-1-(methyl-thiobenzoyl-hydrazono)-ethanolate]: the “water solubility compared with the corresponding neutral or monosalt compounds” value in data set [1] is recorded as “significantly greater water solubility”. The solubility in data set [1] (setting [4]) was determined as 626 mg/mL.
Consider `CN(/N=C(\[O-])C/C([O-])=N/N(C)C(=S)c1ccccc1)C(=S)c1ccccc1.[Mg+2]` [Compound 8, Magnesium; 2-(N′-methyl-N′-thiobenzoyl-hydrazinocarbonyl)-1-(methyl-thiobenzoyl-hydrazono)-ethanolate], for which the solubility in data set [1] (setting [4]) came to 43.5 mg/mL.
On to `CN(/N=C(\[O-])CC(=O)NN(C)C(=S)c1ccccc1)C(=S)c1ccccc1.[K+]` [Compound 10, Monopotassium; 2-(N′-methyl-N′-thiobenzoyl-hydrazinocarbonyl)-1-(methyl-thiobenzoyl-hydrazono)-ethanolate], for which the solubility in data set [1] (setting [4]) was 41.2 mg/mL.
For the molecule `CN(/N=C(\[O-])C/C([O-])=N/N(C)C(=S)C1(C)CC1)C(=S)C1(C)CC1.[Na+].[Na+]` [Compound 12, Disodium; 2-(N′-methyl-N′-thio-1-methylcyclopropyl-hydrazinocarbonyl)-1-(methyl-thio-1-methylcyclopropyl-hydrazono)-ethanolate], the “water solubility compared with the corresponding neutral or monosalt compounds” value in data set [1] is given as “significantly greater water solubility”. For the same molecule, in data set [1] (setting [4]), the solubility is more than 1000 mg/mL.
With `CN(/N=C(\[O-])C/C([O-])=N/N(C)C(=S)C1CC1)C(=S)C1CC1.[Na+].[Na+]` [Compound 13, Disodium; 2-(N′-methyl-N′-thiocyclopropyl-hydrazinocarbonyl)-1-(methyl-thiocyclopropyl-hydrazono)-ethanolate], the “water solubility compared with the corresponding neutral or monosalt compounds” value in data set [1] is “significantly greater water solubility”. Also, the solubility in data set [1] (setting [4]) is more than 1000 mg/mL.
Consider `CN(/N=C(\[O-])C/C([O-])=N/N(C)C(=S)C1(C)CC1)C(=S)C1(C)CC1.[K+].[K+]` [Compound 14, Dipotassium; 2-(N′-methyl-N′-thio-1-methylcyclopropyl-hydrazinocarbonyl)-1-(methyl-thio-1-methylcyclopropyl-hydrazono)-ethano late], for which the “water solubility compared with the corresponding neutral or monosalt compounds” value in data set [1] is reported as “significantly greater water solubility”. For the same molecule, in data set [1] (setting [4]), the solubility is more than 1000 mg/mL.
For the molecule `CN(NC(=O)CC(=O)NN(C)C(=S)c1ccccc1)C(=S)c1ccccc1` [Neutral Form of Compound 1, N-Malonyl-bis(N′-thiobenzoyl-N′-methyl hydrazide)], the water solubility result in data set [1] (water, listed as neutral form of Compounds (1) and (2)) is “about 0.1 mg/ml”. Besides, the Solubility in water in data set [1] (setting [3]) is reported as less than 0.1 mg/mL. In addition, the bioavailability in data set [2] (male beagle dogs, capsule oral vs intravenous solution, AUCpo/AUCiv) was 4.8%; in data set [2] (see Example 16 (dog)), 4.8%.
“Cholin; 2-(N′-methyl-N′-thiobenzoyl-hydrazinocarbonyl)-1-(methyl-thiobenzoyl-hydrazono)-ethanolate [Compound 11]”: the Solubility in water in data set [1] (setting [3]) is 264.0 (>200) mg/mL.

Usually solubility stands for the concentration that dissolves in the medium under given conditions. As a reminder, the bioavailability is the share of a dose that reaches the circulation, judged against a reference dose that is usually intravenous.

These data come from patent publication US8048925B2, “Bis(thio-hydrazide amide) salts for treatment of cancers” (Synta Pharmaceuticals Corp., priority 2004, dated 2011).
